Experimental data taken from PubChem BioAssay (NCI).
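Protocol summary: plate cells (96-well), add compound at 5 concentrations, incubate 48 h, interpolate endpoints linearly. GI50 marks 50% less growth. The concentration for full growth arrest is given as TGI.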

Tests used:
Assay in all cases: NCI-60 cell line screen, 48 h
CCRF-CEM leukemia = tested on: CCRF-CEM leukemia
K-562 leukemia = tested on: K-562 leukemia
DU-145 prostate = tested on: DU-145 prostate
SF-295 CNS = tested on: SF-295 CNS
SK-MEL-2 melanoma = tested on: SK-MEL-2 melanoma
SF-539 CNS = tested on: SF-539 CNS
MALME-3M melanoma = tested on: MALME-3M melanoma
T-47D breast = tested on: T-47D breast
SNB-19 CNS = tested on: SNB-19 CNS
COLO 205 colon = tested on: COLO 205 colon
MDA-N = tested on: MDA-N
UO-31 renal = tested on: UO-31 renal
ACHN renal = tested on: ACHN renal
OVCAR-5 ovarian = tested on: OVCAR-5 ovarian
MDA-MB-435 = tested on: MDA-MB-435
HS 578T breast = tested on: HS 578T breast
HL-60(TB) leukemia = tested on: HL-60(TB) leukemia

SMILES | TGI (CCRF-CEM leukemia) [µM] | TGI (K-562 leukemia) [µM] | TGI (DU-145 prostate) [µM] | TGI (SF-295 CNS) [µM] | TGI (SK-MEL-2 melanoma) [µM] | TGI (SF-539 CNS) [µM] | TGI (MALME-3M melanoma) [µM] | TGI (T-47D breast) [µM] | TGI (SNB-19 CNS) [µM] | TGI (COLO 205 colon) [µM] | TGI (MDA-N) [µM] | TGI (UO-31 renal) [µM] | TGI (ACHN renal) [µM] | TGI (OVCAR-5 ovarian) [µM] | TGI (MDA-MB-435) [µM] | TGI (HS 578T breast) [µM] | TGI (HL-60(TB) leukemia) [µM] | GI50 (SF-539 CNS) [µM]
CCOC(CI)O[C@@H]1C=C[C@H](OC(C)=O)C1 (stereo partly specified) | > 100 | > 100 | > 100 | > 100 | > 100 | > 100 | > 100 | > 100 | > 100 | > 100 | > 100 | > 100 | > 100 | > 100 | > 100 | – | – | –
COc1ccc2c(c1)CCCN1Cc3cc(OC)c(OC)cc3CC21 (stereo unspecified) | > 100 | > 100 | > 100 | > 100 | – | > 100 | > 100 | > 100 | > 100 | > 100 | > 100 | > 100 | > 100 | > 100 | > 100 | > 100 | – | –
C[C@H]1CCCCC[C@@H]2CC(=O)CC2C(=O)CCC(=O)O1 (stereo partly specified) | > 100 | > 100 | > 100 | > 100 | – | > 100 | > 100 | > 100 | > 100 | > 100 | > 100 | – | > 100 | > 100 | > 100 | > 100 | > 100 | –
COc1c(C)c(C/C=C(\C)CCCCO)c(OC)c(OC)c1OC | > 100 | > 100 | > 100 | > 100 | > 100 | > 100 | – | – | > 100 | > 100 | > 100 | > 100 | > 100 | > 100 | > 100 | > 100 | – | –
O=C(Cc1ccccc1)NNc1nc(NNC(=O)c2ccncc2)nc(Nc2ccccc2)n1 | > 10 | > 10 | > 10 | – | – | > 10 | > 10 | > 10 | – | > 10 | > 10 | > 10 | – | – | – | > 10 | > 10 | –
CC(C)c1c(O[Si](C(C)C)(C(C)C)C(C)C)c2c3c(ccc4c3c1OC4(C)C)C(C)CC2 (stereo unspecified) | > 100 | > 100 | > 100 | > 100 | > 100 | > 100 | > 100 | – | > 100 | > 100 | > 100 | > 100 | > 100 | > 100 | > 100 | > 100 | > 100 | –
COc1ccc(C2=Nn3c(nc4sc(-c5ccccc5)cc4c3=O)SC2)cc1 | > 100 | – | > 100 | > 100 | – | > 100 | > 100 | > 100 | – | > 100 | > 100 | > 100 | > 100 | > 100 | > 100 | > 100 | > 100 | –
O=C1Oc2ccccc2C(=O)/C1=C/N1C(=O)N/C(=C\c2cccc(O)c2)C1=O | – | – | > 100 | > 100 | > 100 | > 100 | – | > 100 | > 100 | > 100 | > 100 | > 100 | > 100 | > 100 | > 100 | – | > 100 | –
NC1=CN(Cc2ccccc2)C2=N/C(=C\c3ccccc3)C(=O)N12 | > 100 | > 100 | > 100 | > 100 | > 100 | > 100 | > 100 | > 100 | > 100 | > 100 | – | > 100 | > 100 | > 100 | > 100 | > 100 | > 100 | –
CN1C(=O)[C@@H]2N(CSC2(C)C)C1=S | – | > 100 | > 100 | > 100 | > 100 | > 100 | – | > 100 | > 100 | > 100 | > 100 | > 100 | > 100 | > 100 | > 100 | – | – | –
CN1C(=O)c2c(c3c4ccccc4n(C4OC(CO)C(O)C(O)C4O)c3c3[nH]c4ccccc4c23)C1=O (stereo unspecified) | 1.68 | > 100 | 9.66 | 10.9 | 4.72 | 4.7 | 1.44 | – | 8.42 | 6.79 | 7.24 | 6.6 | 6.45 | 6.67 | 6.95 | 21.6 | – | –
C/C1=C\[C@H](C)C[C@H](C)OC(=O)C[C@H](c2ccc(O)cc2)NC(=O)[C@H](Cc2ccc(O)c(Br)c2)N(C)C(=O)[C@H](C)NC(=O)[C@@H](C)C1 | > 25 | > 25 | > 25 | > 25 | > 25 | – | > 25 | – | > 25 | > 25 | > 25 | > 25 | > 25 | > 25 | > 25 | > 25 | – | –
CC(C)[Si](OC1=C(C(=O)N(C)c2ccccc2Cl)CCCC1)(C(C)C)C(C)C | 29.7 | > 100 | 22.5 | 20.9 | 29.3 | 32.7 | 26.4 | 10.5 | 25.6 | 29.3 | 34.3 | 27.6 | 29.5 | 26.3 | 31.2 | 30.7 | – | –
CC[N+]1(C)CCC(O)(c2ccccc2)C(C(=O)c2ccccc2)C1 (stereo unspecified) | 6.89 | 13.2 | 44.6 | 35.9 | 37.7 | 31.3 | 32.6 | 39.7 | 24.5 | 36.7 | – | 33.6 | 23 | 35.5 | 34.2 | 74 | 15.9 | –
O=C(Nc1sccc1S(=O)(=O)c1ccc(Cl)cc1)C(F)(F)F | – | 35.5 | > 100 | > 100 | 48.4 | 93.7 | > 100 | > 100 | > 100 | 31.8 | 77.3 | > 100 | > 100 | > 100 | > 100 | 72.1 | – | –
O=C(Nc1nnc(-c2c(Cl)c(Cl)c(Cl)c(Cl)c2-c2nc3cc(C(=O)c4ccccc4)ccc3[nH]2)o1)c1ccccc1 | 20.8 | > 100 | 47.8 | 24.3 | 51.4 | 23.7 | – | 54.7 | 34.7 | 24.5 | 12.6 | > 100 | 55.6 | 55.7 | 30.8 | – | 65.3 | –
CC(C)=C[C@@H]1C[C@H](C)c2c(O)cc(C)c3c2C1=C(C)C(=O)C3=O | 47.2 | 40.1 | 28.6 | 30.4 | – | 32.3 | 29.4 | – | 29.1 | 32.6 | 33.7 | – | 34.3 | 62.2 | 29.4 | 41.8 | 44.4 | –
COc1cc2nc(-c3ccccc3F)[nH]c(=O)c2cc1OC | > 100 | > 100 | > 100 | > 100 | > 100 | – | > 100 | > 100 | > 100 | > 100 | > 100 | > 100 | > 100 | > 100 | – | > 100 | > 100 | –
COc1ccc(OC)c(-c2nc3ccccc3c(=O)[nH]2)c1 | > 100 | > 100 | > 100 | > 100 | > 100 | > 100 | > 100 | > 100 | > 100 | > 100 | > 100 | > 100 | > 100 | > 100 | > 100 | > 100 | – | –
O=C(O)c1nc2ccccc2nc1Nc1ccc(F)cc1 | 79.9 | 94.1 | > 100 | 58.5 | 76.5 | 60 | > 100 | > 100 | > 100 | 76.2 | – | > 100 | > 100 | > 100 | > 100 | > 100 | 78.8 | –
CC#Cc1cc2c(cc1O)CC[C@@H]1[C@@H]2CC[C@]2(C)[C@@H](O)CC[C@@H]12 | > 100 | > 100 | 46.9 | 2.73 | 15.1 | 6.04 | 18.3 | > 89.6 | 29.1 | 33.4 | 0.547 | 39 | > 69.6 | 48.4 | 0.814 | 29.5 | – | 0.939
O=C1/C(=C/c2ccccc2)N=C(c2ccccc2)N1C1Nc2cc3c(cc2S1)NC(N1C(=O)/C(=C/c2ccccc2)N=C1c1ccccc1)S3 (stereo unspecified) | > 100 | > 100 | > 100 | > 100 | 77.5 | > 100 | – | > 100 | – | – | > 100 | > 100 | > 100 | > 100 | 47.1 | – | > 100 | –
COC(=O)n1c(=O)n(-c2ccccc2)c(=O)n1C(=O)Nc1ccccc1 | > 100 | > 100 | > 100 | > 100 | > 100 | – | > 100 | > 100 | > 100 | > 100 | – | > 100 | > 100 | > 100 | > 100 | > 100 | > 100 | –
CCOC(=O)CCC(C(=O)OCC)n1nnc2ccc(Nc3c(C)[n+]([O-])c4cc(Cl)ccc4[n+]3[O-])cc21 (stereo unspecified) | > 100 | 57.7 | > 100 | > 100 | 57 | 39.9 | 35.2 | 44.3 | > 100 | 35.7 | – | > 100 | > 100 | > 100 | 40.4 | > 100 | 83.5 | –
COc1ccc(C2CC(c3ccc4ccccc4c3O)=NN2C(C)=O)cc1OC (stereo unspecified) | > 100 | > 100 | > 100 | > 100 | > 100 | > 100 | > 100 | > 100 | – | > 100 | > 100 | > 100 | > 100 | > 100 | > 100 | > 100 | – | –
CN(C)CCCNc1ccnc2cc([N+](=O)[O-])ccc12 | > 100 | > 100 | 72.2 | 54.9 | 29.7 | 31.9 | 11.4 | 35.8 | – | 7.9 | 25.7 | 44.8 | 61.5 | 42.4 | 31.3 | 40.4 | – | –
Cc1cc(C)n(-c2nc3ccccc3c(=O)n2-c2ccccc2)n1 | > 100 | > 100 | > 100 | > 100 | > 100 | > 100 | > 100 | > 100 | > 100 | > 100 | > 100 | 14.3 | > 100 | > 100 | > 100 | – | > 100 | –
COc1ccc(C2CC(=O)CC(c3ccc(OC)cc3)C23C(=O)NC(=S)NC3=O)cc1 (stereo unspecified) | > 100 | > 100 | > 100 | > 100 | > 100 | > 100 | – | > 100 | > 100 | > 100 | > 100 | > 100 | > 100 | > 100 | > 100 | – | > 100 | –
COc1ccc2c(c1)CC[C@@H]1[C@@H]2CC[C@]2(C)C(=O)/C(=C/c3ccncc3)C[C@@H]12 | > 100 | > 100 | > 100 | 66.6 | 60.1 | 55.1 | 77.3 | > 100 | > 100 | > 100 | > 100 | > 100 | > 100 | > 100 | 92.4 | – | – | –
